Reference: EPA's ToxRefDB 2
Blank lines part the entries; values can stand above or below the compound they belong to.

Assays:
[1] = system: mouse; conditions: Reproduction/developmental toxicity screening test; cd1; Injection; Intraperitoneal; dose end: 14 day; group: maternal; reproductive / reproductive performance / fertility / fertility + reproductive / reproductive performance / implantations / implantations + …
[2] = system: rat; conditions: Fertility (Segment I), wistar, Injection, Intraperitoneal, dose end: 7 day
[3] = system: rat; conditions: Reproduction/developmental toxicity screening test; wistar; Injection; Intraperitoneal; dose end: 45 PND; group: parental; systemic / organ weight / ovary / nos
[4] = system: rat; conditions: Subchronic oral toxicity in rodents, sprague dawley, Feed, dose end: 90 day, group: systemic, systemic / hematology / platelet / platelet + systemic / urinalysis / ketones / ketones
[5] = system: rabbit; conditions: Prenatal developmental toxicity study, new zealand white, Oral, Gavage/Intubation, dose end: 19 GD
[6] = system: mouse; conditions: Subchronic oral toxicity in rodents, b6c3f1, Feed, dose end: 90 day, group: systemic
[7] = system: mouse; conditions: Carcinogenicity, b6c3f1, Oral, Feed, dose end: 78 week, group: systemic
[8] = system: dog; conditions: Chronic toxicity, beagle, Oral, Feed, dose end: 52 week, group: systemic
[9] = system: rabbit; conditions: Prenatal developmental toxicity study, himalayan, Oral, Gavage/Intubation, dose end: 19 GD
[10] = system: rat; conditions: Prenatal developmental toxicity study, other, Oral, Gavage/Intubation, dose end: 15 GD
[11] = system: rat; conditions: Combined chronic toxicity/carcinogenicity, other, Oral, Feed, dose end: 24 month, group: systemic
[12] = system: dog; conditions: Chronic toxicity; beagle; Oral; Feed; dose end: 52 week; group: systemic; systemic / in life observation / body weight / body weight gain + systemic / in life observation / clinical signs / abnormal gait + systemic…
[13] = system: dog; conditions: Subchronic oral toxicity in nonrodent, beagle, Feed, dose end: 90 day, group: systemic
[14] = system: rat; conditions: Subchronic oral toxicity in rodents, other, Feed, dose end: 3 month, group: systemic
[15] = system: rat; conditions: Multigenerational reproductive toxicity study, sprague dawley, Oral, Feed, dose end: 2 generation
[16] = system: mouse; conditions: Carcinogenicity; other; Oral; Feed; dose end: 18 month; group: systemic; systemic / clinical chemistry / alanine aminotransferase (alt/sgpt) / alanine aminotransferase (alt/sgpt) + systemic / clinical chemistry / …
[17] = system: rat; conditions: Prenatal developmental toxicity study, wistar, Oral, Gavage/Intubation, dose end: 15 GD
[18] = system: rat; conditions: Peri- and post-natal toxicity study (Segment III), wistar, Oral, Gavage/Intubation, dose end: 21 PND
[19] = system: rat; conditions: Combined chronic toxicity/carcinogenicity; fischer; Oral; Gavage/Intubation; dose end: 2 year; group: systemic; systemic / pathology microscopic / kidney / hyperplasia + systemic / pathology microscopic / kidney / nephropathy + systemic / pathology …
[20] = system: mouse; conditions: Subchronic oral toxicity in rodents, b6c3f1, Gavage/Intubation, dose end: 14 week, group: systemic
[21] = system: mouse; conditions: Combined chronic toxicity/carcinogenicity, b6c3f1, Oral, Gavage/Intubation, dose end: 2 year, group: systemic
[22] = system: rat; conditions: Subchronic oral toxicity in rodents, fischer, Gavage/Intubation, dose end: 14 week, group: systemic
[23] = group: maternal, reproductive / reproductive performance / estrous cycle / length
[24] = group: parental, systemic / clinical chemistry / estradiol / estradiol, free + systemic / pathology microscopic / vagina / diestrus
[25] = group: developmental, systemic / in life observation / body weight / fetal weight
[26] = group: maternal, reproductive / reproductive performance / aborted / aborted + reproductive / reproductive performance / postimplantation loss / …
[27] = group: maternal, systemic / in life observation / body weight / body weight gain
[28] = systemic / in life observation / body weight / body weight gain
[29] = systemic / in life observation / body weight / body weight gain + systemic / organ weight / kidney / absolute
[30] = systemic / in life observation / body weight / body weight + systemic / organ weight / brain / nos + systemic / organ weight / kidney / nos
[31] = systemic / organ weight / liver / relative to body weight
[32] = systemic / organ weight / liver / relative to body weight + systemic / clinical chemistry / alanine aminotransferase (alt/sgpt) / alanine …
[33] = group: maternal, systemic / in life observation / body weight / body weight gain + systemic / in life observation / food consumption / food consumption
[34] = group: maternal, systemic / in life observation / body weight / body weight gain + systemic / in life observation / food consumption / food consumption + …
[35] = group: developmental, developmental / developmental malformation / bone / incomplete ossification + developmental / developmental malformation / bone / irregular …
[36] = systemic / pathology microscopic / kidney / pigmentation + systemic / pathology microscopic / liver / hypertrophy
[37] = systemic / pathology microscopic / kidney / pigmentation + systemic / pathology microscopic / liver / hypertrophy + systemic / pathology …
[38] = systemic / in life observation / clinical signs / skin ulceration
[39] = systemic / in life observation / clinical signs / skin ulceration + systemic / clinical chemistry / alkaline phosphatase (alp/alk) / …
[40] = systemic / clinical chemistry / alkaline phosphatase (alp/alk) / alkaline phosphatase (alp/alk) + systemic / organ weight / liver / absolute…
[41] = group: offspring, developmental / offspring survival late / lactation index / lactation index + systemic / in life observation / body weight / offspring (pup…
[42] = group: parental, systemic / in life observation / body weight / body weight gain + systemic / in life observation / food consumption / food consumption + …
[43] = group: developmental, developmental / developmental malformation / bone / [other] + developmental / developmental malformation / bone / delayed ossification + …
[44] = group: maternal, reproductive / reproductive performance / implantations / implantations + systemic / in life observation / body weight / body weight gain + …
[45] = group: developmental, developmental / developmental landmark / eye opening / eye opening + developmental / developmental landmark / pinna unfolding / pinna …
[46] = group: maternal, reproductive / reproductive performance / dystocia / dystocia + reproductive / reproductive performance / fertility / fertility + …
[47] = group: offspring, systemic / in life observation / body weight / offspring (pup) weight
[48] = group: parental, systemic / in life observation / body weight / body weight + systemic / in life observation / body weight / body weight gain + systemic / in…
[49] = systemic / organ weight / kidney / relative to body weight + systemic / organ weight / liver / absolute
[50] = systemic / pathology microscopic / liver / adenoma/carcinoma combined + systemic / pathology microscopic / liver / adenoma + systemic / …
[51] = systemic / organ weight / kidney / absolute + systemic / organ weight / kidney / relative to body weight + systemic / organ weight / liver…

LEL [2, 23]: 100 mg/kg/day
NEL [2, 23]: < 100 mg/kg/day
LEL [2, 24]: 100 mg/kg/day
NEL [2, 24]: < 100 mg/kg/day
Structure (SMILES): CC(=O)S[C@@H]1CC2=CC(=O)CC[C@]2(C)[C@H]2CC[C@@]3(C)[C@@H](CC[C@@]34CCC(=O)O4)[C@H]12 [Spironolactone]
LEL [1]: 100 mg/kg/day
LOAEL [1]: > 100 mg/kg/day
NEL [1]: < 100 mg/kg/day
NOAEL [1]: ≥ 100 mg/kg/day
LOAEL [2, 23]: > 100 mg/kg/day
NOAEL [2, 23]: ≥ 100 mg/kg/day
LOAEL [2, 24]: > 100 mg/kg/day
NOAEL [2, 24]: ≥ 100 mg/kg/day
LEL [3]: 100 mg/kg/day
LOAEL [3]: > 100 mg/kg/day
NEL [3]: < 100 mg/kg/day
NOAEL [3]: ≥ 100 mg/kg/day

Structure (SMILES): COc1cc(OC)nc(NC(=O)NS(=O)(=O)c2ncccc2C(=O)N(C)C)n1 [Nicosulfuron]
LEL [4]: 15 mg/kg/day
LOAEL [4]: 15 mg/kg/day
NEL [4]: < 15 mg/kg/day
NOAEL [4]: < 15 mg/kg/day
LEL [5, 25]: 100 mg/kg/day
LOAEL [5, 25]: 1000 mg/kg/day
NEL [5, 25]: < 100 mg/kg/day
NOAEL [5, 25]: 500 mg/kg/day
LOAEL [5, 26]: 500 mg/kg/day
NOAEL [5, 26]: 100 mg/kg/day
LEL [5, 27]: 100 mg/kg/day
NEL [5, 27]: < 100 mg/kg/day

Structure (SMILES): O=C(O)c1c(Cl)ccc2cc(Cl)cnc12 [Quinclorac]
LOAEL [6, 28]: 1000 mg/kg/day
NOAEL [6, 28]: < 1000 mg/kg/day
LEL [6, 29]: 1000 mg/kg/day
NEL [6, 29]: < 1000 mg/kg/day
LOAEL ([7]; systemic / in life observation / body weight / body weight): 150 mg/kg/day
NEL [7, 30]: 37.5 mg/kg/day
NOAEL [7, 30]: 37.5 mg/kg/day
LEL ([7]; systemic / in life observation / body weight / body weight + systemic / organ weight / kidney / nos): 150 mg/kg/day
LEL [8, 31]: 34.5 mg/kg/day
NEL [8, 31]: < 34.5 mg/kg/day
LOAEL [8, 32]: 469 mg/kg/day
NOAEL [8, 32]: 140 mg/kg/day
LEL [9, 25]: 600 mg/kg/day
LOAEL [9, 25]: 600 mg/kg/day
NEL [9, 25]: 200 mg/kg/day
NOAEL [9, 25]: 200 mg/kg/day
LEL [9, 33]: 200 mg/kg/day
LOAEL [9, 33]: 200 mg/kg/day
NEL [9, 34]: 70 mg/kg/day
NOAEL [9, 34]: 70 mg/kg/day

Structure (SMILES): C#CCOC(=O)[C@@H](C)Oc1ccc(Oc2ncc(Cl)cc2F)cc1 [Clodinafop-propargyl mixt.]
LEL [10, 35]: 40 mg/kg/day
LOAEL [10, 35]: 40 mg/kg/day
NEL [10, 35]: 5 mg/kg/day
NOAEL [10, 35]: 5 mg/kg/day
LEL [10, 27]: 5 mg/kg/day
LOAEL [10, 27]: > 160 mg/kg/day
NEL [10, 27]: < 5 mg/kg/day
NOAEL [10, 27]: ≥ 160 mg/kg/day
LEL [11, 36]: 0.324 mg/kg/day
LOAEL [11, 36]: 0.324 mg/kg/day
NEL [11, 37]: 0.031 mg/kg/day
NOAEL [11, 37]: 0.031 mg/kg/day
LEL [12]: 15.2 mg/kg/day
LOAEL [12]: 15.2 mg/kg/day
NEL [12]: 3.38 mg/kg/day
NOAEL [12]: 3.38 mg/kg/day
LEL [13, 38]: 1.73 mg/kg/day
LOAEL [13, 38]: 1.73 mg/kg/day
NEL [13, 39]: 0.346 mg/kg/day
NOAEL [13, 39]: 0.346 mg/kg/day
LEL [14, 40]: 8.24 mg/kg/day
LOAEL [14, 40]: 8.24 mg/kg/day
NOAEL [14, 40]: 0.92 mg/kg/day
NEL ([14]; systemic / hematology / erythrocyte (rbc) count differential / erythrocyte (rbc) + systemic / hematology / hemoglobin (hgb) / hemoglobin (…): 0.92 mg/kg/day
LEL [15, 41]: 31.7 mg/kg/day
LOAEL [15, 41]: 31.7 mg/kg/day
NEL [15, 41]: 3.21 mg/kg/day
NOAEL [15, 41]: 3.21 mg/kg/day
LEL [15, 42]: 31.7 mg/kg/day
LOAEL [15, 42]: 31.7 mg/kg/day
NEL [15, 42]: 3.21 mg/kg/day
NOAEL [15, 42]: 3.21 mg/kg/day
LEL [16]: 11 mg/kg/day
LOAEL [16]: 11 mg/kg/day
NEL [16]: 1.1 mg/kg/day
NOAEL [16]: 1.1 mg/kg/day

Structure (SMILES): C=CC(=C)CCC=C(C)C [Myrcene]
LEL [17, 43]: 1200 mg/kg/day
LOAEL [17, 43]: > 1200 mg/kg/day
NEL [17, 43]: 500 mg/kg/day
NOAEL [17, 43]: ≥ 1200 mg/kg/day
LEL [17, 44]: 1200 mg/kg/day
LOAEL [17, 44]: > 1200 mg/kg/day
NEL [17, 44]: 500 mg/kg/day
NOAEL [17, 44]: ≥ 1200 mg/kg/day
LOAEL [18, 45]: > 1500 mg/kg/day
NEL [18, 45]: 250 mg/kg/day
NOAEL [18, 45]: ≥ 1500 mg/kg/day
LEL ([18]; group: developmental, developmental / developmental malformation / general / [other]): 500 mg/kg/day
NEL ([18]; group: maternal, reproductive / offspring survival early / dead fetuses / dead fetuses + reproductive / offspring survival early / litter viability other / …): 250 mg/kg/day
LEL ([18]; group: maternal, reproductive / offspring survival early / litter viability other / litter viability): 500 mg/kg/day
LOAEL [18, 46]: > 1500 mg/kg/day
NOAEL [18, 46]: ≥ 1500 mg/kg/day
LEL [18, 47]: 500 mg/kg/day
LOAEL [18, 47]: > 1500 mg/kg/day
NEL [18, 47]: 250 mg/kg/day
NOAEL [18, 47]: ≥ 1500 mg/kg/day
LOAEL [18, 48]: > 1500 mg/kg/day
NEL [18, 48]: 500 mg/kg/day
NOAEL [18, 48]: ≥ 1500 mg/kg/day
LEL ([18]; group: parental, systemic / in life observation / body weight / body weight gain + systemic / pathology microscopic / stomach / hyperkeratosis): 1000 mg/kg/day
LEL [19]: 250 mg/kg/day
LOAEL [19]: 250 mg/kg/day
NEL [19]: < 250 mg/kg/day
NOAEL [19]: < 250 mg/kg/day
LOAEL ([20]; systemic / in life observation / body weight / body weight + systemic / in life observation / body weight / body weight gain): 1000 mg/kg/day
LEL [20, 49]: 250 mg/kg/day
NEL [20, 49]: < 250 mg/kg/day
NOAEL ([20]; systemic / organ weight / liver / absolute + systemic / in life observation / body weight / body weight + systemic / in life observation / …): 500 mg/kg/day
LOAEL ([21]; systemic / in life observation / body weight / body weight + systemic / pathology microscopic / liver / hypertrophy + systemic / pathology …): 500 mg/kg/day
NOAEL ([21]; systemic / pathology microscopic / liver / adenoma/carcinoma combined + systemic / in life observation / body weight / body weight + …): 250 mg/kg/day
LEL [21, 50]: 250 mg/kg/day
NEL [21, 50]: < 250 mg/kg/day
LEL [22, 51]: 250 mg/kg/day
NEL [22, 51]: < 250 mg/kg/day
NOAEL [22, 51]: 250 mg/kg/day
LOAEL ([22]; systemic / organ weight / kidney / absolute + systemic / organ weight / kidney / relative to body weight + systemic / pathology microscopic…): 500 mg/kg/day
